According to ChEMBL document CHEMBL5214926, “Recent contribution of medicinally active 2-aminothiophenes: A privileged scaffold for drug discovery” (Eur J Med Chem, 2022):
≈ marks a conversion by molar mass, not a printed value.

How the values were obtained:
HepG2 [1] = assay: Cytotoxicity against human HepG2 cells assessed as cell growth inhibition incubated for 48 hrs by MTT assay; type: functional, cell-based
MCF7 [2] = assay: Cytotoxicity against human MCF7 cells assessed as cell growth inhibition incubated for 48 hrs by MTT assay; type: functional, cell-based; conditions: MCF7, 48 h
[3] = Inhibition of CaCC (unknown origin) current potentiation; design: species or system Homo sapiens
Heyndrickxia coagulans = assay: Antibacterial activity against Bacillus coagulans assessed as bacterial growth inhibition; type: functional
Staphylococcus coagulans = assay: Antimicrobial activity against Staphylococcus coagulans assessed as microbial growth inhibition incubated for 24 hrs by disc diffusion assay; type: functional
Enterococcus faecalis = assay: Antibacterial activity against Enterococcus faecalis assessed as bacterial growth inhibition; type: functional
NCI-H1299 = assay: Cytotoxicity against human NCI-H1299 cells assessed as cell growth inhibition incubated for 48 hrs by SRB assay; type: functional, cell-based; conditions: NCI-H1299, 48 h
Bacillus subtilis [4] = assay: Antibacterial activity against Bacillus subtilis NCIM 2079 assessed as reduction in bacterial growth incubated for 8 hrs by absorbance based assay; type: functional, organism-based; conditions: NCIM 2079, 8 h
Escherichia coli = assay: Antibacterial activity against Escherichia coli NCIM 2688 assessed as bacterial growth inhibition incubated for 8 hrs by absorbance based assay; type: functional
Pseudomonas aeruginosa = assay: Antibacterial activity against Pseudomonas aeruginosa NCIM 2036 assessed as bacterial growth inhibition incubated for 8 hrs by absorbance based assay; type: functional
Bacillus subtilis [5] = assay: Antibacterial activity against Bacillus subtilis NCIM 2079 assessed as bacterial growth inhibition incubated for 8 hrs by absorbance based assay; type: functional
Staphylococcus aureus [6] = assay: Antibacterial activity against Staphylococcus aureus NCIM 2010 assessed as reduction in bacterial growth incubated for 8 hrs by absorbance based assay; type: functional, organism-based; conditions: NCIM 2010, 8 h
Staphylococcus aureus [7] = assay: Antibacterial activity against Staphylococcus aureus NCIM 2010 assessed as bacterial growth inhibition incubated for 8 hrs by absorbance based assay; type: functional
HepG2 [8] = assay: Cytotoxicity against human HepG2 cells assessed as cell growth inhibition incubated for 2 days by MTT assay; type: functional, cell-based; conditions: HepG2, 48 h
PC-3 = assay: Cytotoxicity against human PC-3 cells assessed as cell growth inhibition incubated for 2 days by MTT assay; type: functional, cell-based; conditions: PC-3, 48 h
MCF7 [9] = assay: Cytotoxicity against human MCF7 cells assessed as cell growth inhibition incubated for 2 days by MTT assay; type: functional, cell-based; conditions: MCF7, 48 h
Trichophyton rubrum = assay: Antifungal activity against Trichophyton rubrum 6753 assessed as fungal growth inhibition by spectrophotometry; type: functional
Trichophyton tonsurans [10] = assay: Antifungal activity against Trichophyton tonsurans 700 assessed as fungal growth inhibition by spectrophotometry; type: functional
Trichophyton tonsurans [11] = assay: Antifungal activity against Trichophyton tonsurans 2822 assessed as fungal growth inhibition by spectrophotometry; type: functional
Leishmania amazonensis = assay: Anti-promastigote activity against Leishmania amazonensis (IFLA/BR/67/PH8) assessed as promastigote growth inhibition incubated for 72 hrs by microscopic analysis; type: functional, organism-based; conditions: Leishmania amazonensis, IFLA/BR/67/PH8, 72 h
NCI-H460 = assay: Antiproliferative activity against human NCI-H460 cells assessed as cell growth inhibition by MTT assay
SMMC-7721 = assay: Antiproliferative activity against human SMMC-7721 cells assessed as cell growth inhibition by MTT assay
MKN-45 = assay: Antiproliferative activity against human MKN-45 cells assessed as cell growth inhibition by MTT assay
A549 = assay: cells; conditions: Homo sapiens
Description: Antiproliferative activity against human A549 cells assessed as cell growth inhibition by MTT assay

HT-29 = assay: cells; conditions: Homo sapiens
Description: Antiproliferative activity against human HT-29 cells assessed as cell growth inhibition by MTT assay

[12] = Antiproliferative activity against human U-87 MG cells assessed as cell growth inhibition by MTT assay; type: functional, cell-based, U-87MG ATCC
[13] = tested on: Mycobacterium tuberculosis; assay: Antimycobacterial activity against Mycobacterium tuberculosis H37Ra incubated for 8 to 12 days by XTT reduction menadione assay; type: functional; conditions: time 8-12 day

CC(=O)c1ccc(Nc2c(C(=O)/C=C/c3ccccc3)sc(/N=C/c3ccccc3)c2C#N)cc1
IC50 (HepG2 [1]; Homo sapiens, HepG2, 48 h): 19100 nM
IC50 (HepG2 [1]; hepg2): 26200 nM
IC50 (MCF7 [2]): 19100 nM

C=CCNC(=S)Nc1sc2c(c1C(=O)OC)CCC(C(C)(C)C)C2 (stereo not drawn)
IC50 [3]: 49700 nM

N#Cc1c(NC(=O)c2cc(O)c(O)c(O)c2)sc2c1CCCC2
MIC (Heyndrickxia coagulans): 0.15 µg/mL (≈ 0.454 µM)
MIC (Staphylococcus coagulans): 0.45 µM (≈ 0.149 µg/mL)
MIC (Enterococcus faecalis): 0.17 µg/mL (≈ 0.515 µM)

N#Cc1c(NC(=O)CN/N=C/c2cccc([N+](=O)[O-])c2)sc2c1CCCC2
IC50 (NCI-H1299): 18500 nM

CC1(C)S[C@@H]2[C@H](NC(=O)[C@H](N)c3ccccc3)C(=O)N2[C@H]1C(=O)O [AMPICILLIN]
EC50 (Bacillus subtilis [4]): 150 nM
MIC (Escherichia coli): 0.88 µg/mL (≈ 2.52 µM)
MIC (Pseudomonas aeruginosa): > 10 µg/mL
MIC (Bacillus subtilis [5]): 0.28 µg/mL (≈ 0.801 µM)
EC50 (Staphylococcus aureus [6]): 150 nM
MIC (Staphylococcus aureus [7]): 0.28 µg/mL (≈ 0.801 µM)

CC(=O)c1ccc(Nc2c(C(C)=O)sc(NC(=O)CC#N)c2C#N)cc1
IC50 (HepG2 [1]; Homo sapiens, HepG2, 48 h): 56100 nM
IC50 (MCF7 [2]): 41400 nM

N#Cc1c(NC(=O)/C=C/c2ccc(O)cc2)sc2c1CCCC2
IC50 (HepG2 [8]): 7900 nM
IC50 (PC-3): 5200 nM
IC50 (MCF7 [9]): 7500 nM

CC(C)(C)C1CCc2c(sc(NC3=NCC(CBr)S3)c2C(=O)O)C1 (stereo not drawn)
IC50 [3]: 24800 nM

COC(=O)c1c(N)sc2c1CCC(C(C)(C)C)C2 (stereo not drawn)
IC50 [3]: 4600 nM

N#Cc1ccsc1/N=C/c1c(Cl)cccc1Cl
MIC (Trichophyton rubrum): 32 µg/mL (≈ 114 µM)
MIC (Trichophyton tonsurans [10]): 64 µg/mL (≈ 228 µM)
MIC (Trichophyton tonsurans [11]): 256 µg/mL (≈ 910 µM)

Cc1sc(NC(=O)c2cc(O)c(O)c(O)c2)c(C#N)c1C
MIC (Heyndrickxia coagulans): 0.15 µg/mL (≈ 0.493 µM)
MIC (Staphylococcus coagulans): 0.49 µM (≈ 0.149 µg/mL)
MIC (Enterococcus faecalis): 0.25 µg/mL (≈ 0.821 µM)

N#Cc1c(NC(=O)CNc2n[nH]c3ncccc23)sc2c1CCCC2
IC50 (NCI-H1299): 12.5 nM

COc1ccc2nc3cc(Cl)ccc3c(Nc3sc4c(c3C#N)CCCCCC4)c2c1
EC50 (Leishmania amazonensis): 69000 nM

N#Cc1c(N)sc(C(=O)Nc2ccccc2)c1-c1ccccc1
IC50 (NCI-H460): 9620 nM
IC50 (SMMC-7721): 5090 nM
IC50 (MKN-45): 7090 nM
IC50 (A549): 8280 nM
IC50 (HT-29): 8390 nM
IC50 [12]: 8930 nM

N#Cc1c(/N=C/c2c3ccccc3nc3ccccc23)sc2c1CCC2
EC50 (Leishmania amazonensis): > 500000 nM

N#CCC(=O)Nc1sc(C(=O)Nc2ccccc2)c(-c2ccccc2)c1C#N
IC50 (NCI-H460): 8060 nM
IC50 (SMMC-7721): 7930 nM
IC50 (MKN-45): 9140 nM
IC50 (A549): 7590 nM
IC50 (HT-29): 6590 nM
IC50 [12]: 6280 nM

COc1cccc2c1C(=O)c1c(O)c3c(c(O)c1C2=O)C[C@@](O)(C(=O)CO)C[C@@H]3O[C@H]1C[C@H](N)[C@H](O)[C@H](C)O1 [DOXORUBICIN]
IC50 (HepG2 [1]; Homo sapiens, HepG2, 48 h): 4170 nM

N#Cc1c(N)sc(C(=O)Nc2ccc(Cl)cc2)c1-c1ccccc1
IC50 (NCI-H460): 760 nM
IC50 (SMMC-7721): 690 nM
IC50 (MKN-45): 420 nM
IC50 (A549): 700 nM
IC50 (HT-29): 650 nM
IC50 [12]: 590 nM

N#Cc1c(NC(=O)CNc2onc3ncccc23)sc2c1CCCC2
IC50 (NCI-H1299): 18400 nM

N#Cc1c(NC(=O)c2cc(O)c(O)c(O)c2)sc2c1CCC2
MIC (Heyndrickxia coagulans): 0.1 µg/mL (≈ 0.316 µM)
MIC (Staphylococcus coagulans): 0.32 µM (≈ 0.101 µg/mL)
MIC (Enterococcus faecalis): 0.25 µg/mL (≈ 0.79 µM)

CCOC(=O)c1c(N)sc(C(=O)Nc2ccc(Cl)cc2)c1-c1ccccc1
IC50 (NCI-H460): 380 nM
IC50 (SMMC-7721): 420 nM
IC50 (MKN-45): 260 nM
IC50 (A549): 230 nM
IC50 (HT-29): 190 nM
IC50 [12]: 390 nM

COC(=O)c1ccsc1NC(=O)N[C@@H](C(=O)N[C@@H]1C(=O)N2[C@@H]1SC(C)(C)[C@@H]2C(=O)O)c1ccc(O)cc1
EC50 (Bacillus subtilis [4]): 150 nM
MIC (Escherichia coli): > 10 µg/mL
MIC (Pseudomonas aeruginosa): > 10 µg/mL
MIC (Bacillus subtilis [5]): 0.32 µg/mL (≈ 0.583 µM)
EC50 (Staphylococcus aureus [6]): 150 nM
MIC (Staphylococcus aureus [7]): 0.29 µg/mL (≈ 0.529 µM)
MIC [13]: > 50 µg/mL

CCOC(=O)c1c(NC(=O)CC#N)sc(C(=O)Nc2ccccc2)c1-c1ccccc1
IC50 (NCI-H460): 490 nM
IC50 (SMMC-7721): 530 nM
IC50 (MKN-45): 590 nM
IC50 (A549): 320 nM
IC50 (HT-29): 630 nM
IC50 [12]: 620 nM

N#CCC(=O)Nc1sc(C(=O)Nc2ccc(Cl)cc2)c(-c2ccccc2)c1C#N
IC50 (NCI-H460): 1040 nM
IC50 (SMMC-7721): 390 nM
IC50 (MKN-45): 590 nM
IC50 (A549): 1400 nM
IC50 (HT-29): 860 nM
IC50 [12]: 860 nM
